Results reported in patent US9550782B2, “Compounds and methods for treating diabetes” (Medivation Technologies, Inc., priority 2011, dated 2017).
Several values for one entry are separate records, joined by “and”; a condition that tells them apart may be missing. Identical values can stand only once. Like-named read-outs stand apart in the source and are kept apart here.

Experiments:
[1] = target: T1, human recombinant adrenergic α2A receptor (Homo sapiens, UniProt P08913); assay: Radioligand binding, adrenergic α2A ([3H]MK-912); settings: [3H]MK-912
T1 construct: expressed in transfected cells; host or cells: insect Sf9 cells
T1 sequence (P08913 1-465): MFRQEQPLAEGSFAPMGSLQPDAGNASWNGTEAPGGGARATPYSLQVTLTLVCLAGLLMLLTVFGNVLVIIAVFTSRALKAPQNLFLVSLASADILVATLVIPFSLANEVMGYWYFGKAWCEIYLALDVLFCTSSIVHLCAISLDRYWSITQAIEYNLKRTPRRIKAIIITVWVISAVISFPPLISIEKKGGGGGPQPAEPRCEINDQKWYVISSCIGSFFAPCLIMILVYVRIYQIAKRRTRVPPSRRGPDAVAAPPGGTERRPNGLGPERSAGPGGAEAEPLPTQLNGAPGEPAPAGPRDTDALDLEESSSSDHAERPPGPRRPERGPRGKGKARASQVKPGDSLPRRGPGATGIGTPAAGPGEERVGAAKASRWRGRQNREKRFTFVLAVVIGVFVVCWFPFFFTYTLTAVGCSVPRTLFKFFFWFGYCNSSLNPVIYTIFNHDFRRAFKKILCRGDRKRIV
Experimental: To evaluate in radioligand binding assays the activity of compounds of the invention, human recombinant adrenergic α2A receptor expressed in insect Sf9 cells (Uhlen, S. et al, J. Pharmacol. Exp. Ther. 271:1558, 1994) in a modified Tris-HCl buffer (50 mM Tris-HCl, pH 7.4, 12.5 mM MgCl2, 2 mM EDTA) was used. Compounds of invention were incubated with 1 nM [^3H]MK-912 for 60 min at 25° C. MK912 is (2S-trans)-1,3,4,5′,6,6′,7,12b-octahydro-1′,3′-dimethyl-spiro[2H-benzofuro[2,3-a]quinolizine-2,4′(1′H)-pyrimidin]-2′(3′H)-one hydrochloride. Non-specific binding was estimated in the presence of 10 μM WB-4101 (2-(2,6-Dimethoxyphenoxyethyl)aminomethyl-1,4-benzodioxane hydrochloride). Receptor proteins were filtered and washed, the filters were then counted to determine [^3H]MK-912 specifically bound. […] Compounds of the invention were tested in this biochemical assay and percent inhibition of specific binding was determined. Biochemical assay results are presented as the percent inhibition of specific binding in Table B1.

[2] = target: T2, rat adrenergic α1B receptor (Rattus norvegicus, UniProt P15823); assay: Radioligand binding, adrenergic α1B ([3H]Prazosin); parameters: species or system Wistar Rat
T2 construct: rat adrenergic α1B receptor obtained from Wistar Rat liver; from tissue; host or cells: Wistar rat liver
T2 sequence (P15823 1-515): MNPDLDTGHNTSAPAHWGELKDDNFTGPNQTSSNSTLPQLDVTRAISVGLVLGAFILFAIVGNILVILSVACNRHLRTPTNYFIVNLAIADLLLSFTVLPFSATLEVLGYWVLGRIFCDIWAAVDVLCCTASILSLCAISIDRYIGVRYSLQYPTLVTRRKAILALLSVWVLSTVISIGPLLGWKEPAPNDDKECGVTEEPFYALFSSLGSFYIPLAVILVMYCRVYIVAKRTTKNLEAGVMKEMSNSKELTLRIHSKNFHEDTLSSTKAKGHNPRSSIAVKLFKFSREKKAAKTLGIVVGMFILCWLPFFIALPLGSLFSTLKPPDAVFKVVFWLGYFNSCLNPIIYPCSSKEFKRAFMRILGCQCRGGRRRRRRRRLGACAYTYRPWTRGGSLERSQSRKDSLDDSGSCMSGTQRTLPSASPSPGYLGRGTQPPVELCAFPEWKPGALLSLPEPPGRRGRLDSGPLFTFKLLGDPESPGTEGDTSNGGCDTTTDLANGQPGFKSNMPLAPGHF
Experimental: To evaluate in radioligand binding assays the activity of compounds of the invention, rat adrenergic α1B receptor obtained from Wistar Rat liver (Garcia-S'ainz, J. et al, Biochem. Biophys. Res. Commun. 186:760, 1992; Michel, A. et al, Br. J. Pharmacol. 98:883, 1989) in a modified Tris-HCl buffer (50 mM Tris-HCl buffer, pH 7.4, 0.5 mM EDTA) was used. Compounds of the invention were incubated with 0.25 nM [^3H]Prazosin for 60 min at 25° C. Non-specific binding was estimated in the presence of 10 μM phentolamine. Receptor proteins were filtered and washed, the filters were then counted to determine [^3H]Prazosin specifically bound. […] Compounds of the invention were tested in this biochemical assay and percent inhibition of specific binding was determined. Biochemical assay results are presented as the percent inhibition of specific binding in Table B1.

[3] = target: T3, human recombinant adrenergic α2B receptor (Homo sapiens, UniProt P18089); assay: Radioligand binding, adrenergic α2B ([3H]Rauwolscine); settings: read-out: Percentage inhibition of ligand binding, Adrenergic α2B (0.03 μM), compound at 0.03 μM, repeat datapoints each shown
T3 construct: expressed in transfected cells; host or cells: CHO-K1
T3 sequence (P18089 1-450): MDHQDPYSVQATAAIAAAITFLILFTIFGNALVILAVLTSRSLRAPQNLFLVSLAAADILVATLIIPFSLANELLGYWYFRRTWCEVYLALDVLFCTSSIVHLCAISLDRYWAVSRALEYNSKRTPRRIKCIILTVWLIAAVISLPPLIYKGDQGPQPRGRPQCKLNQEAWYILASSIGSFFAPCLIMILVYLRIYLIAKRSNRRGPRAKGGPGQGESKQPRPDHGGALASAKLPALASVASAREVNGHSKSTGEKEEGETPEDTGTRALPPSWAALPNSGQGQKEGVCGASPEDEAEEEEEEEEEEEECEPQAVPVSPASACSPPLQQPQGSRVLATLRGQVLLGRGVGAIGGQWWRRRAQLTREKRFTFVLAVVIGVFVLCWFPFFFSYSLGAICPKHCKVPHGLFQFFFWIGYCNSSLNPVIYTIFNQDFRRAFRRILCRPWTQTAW
Experimental: To evaluate in radioligand binding assays the activity of compounds of the invention, human recombinant adrenergic α2B receptor expressed in Chinese hamster ovary (CHO) K1 cells (Uhlen, S. et al, Eur. J. Pharmacol. 343(1):93, 1998) in a modified Tris-HCl buffer (50 mM Tris-HCl, pH 7.4, 12.5 mM MgCl2, 1 mM EDTA, 0.2% BSA) was used. Compounds of the invention were incubated with 2.5 nM [3H]Rauwolscine for 60 min at 25° C. Non-specific binding was estimated in the presence of 10 μM Prazosin. Receptor proteins were filtered and washed, the filters were then counted to determine [3H]Rauwolscine specifically bound. […] Compounds of the invention were tested in this biochemical assay and percent inhibition of specific binding was determined. Biochemical assay results are presented as the percent inhibition of specific binding in Table B1.

[4] = compound at 0.1 μM, repeat datapoints each shown, 0.1 µM
[5] = read-out: Percentage inhibition of ligand binding, Adrenergic α2A (0.1 μM), compound at 0.1 μM, repeat datapoints each shown
[6] = 0.1 μM compound, read-out: Percentage inhibition of ligand binding, Adrenergic α2A
[7] = read-out: Percentage inhibition of ligand binding, Adrenergic α1B (0.1 μM), compound at 0.1 μM, repeat datapoints each shown

CCC(O)(Cn1c2c(c3cc(C)ccc31)CN(C)CC2)c1ccc(F)cc1 (single isomer, unassigned) [34a]
Percentage inhibition of ligand binding, Adrenergic α2A (0.1 μM) [1, 4]: 29% | Percentage inhibition of ligand binding, Adrenergic α1B (0.1 μM) [2, 4]: 11%

CN1CCc2c(n(CC(O)c3ccc(F)c(F)c3)c3ccc(Cl)cc23)CC1 (single isomer, unassigned) [339a]
Percentage inhibition of ligand binding, Adrenergic α2A ([1]; compound at 0.1 μM, 0.1 µM): 37% | Percentage inhibition of ligand binding, Adrenergic α1B ([2]; compound at 0.1 μM): 13%

CN1CCc2c(n(CC(O)c3ccc(F)c(F)c3)c3ccc(Cl)cc23)CC1 (single isomer, unassigned) [339b]
Percentage inhibition of ligand binding, Adrenergic α2A ([1]; compound at 0.1 μM, 0.1 µM): 64%

Cc1ccc2c(c1)c1c(n2CC(C)(O)c2cccnc2)C(O)CN(C)C1 (single isomer, unassigned) [II-151a]
Percentage inhibition of ligand binding, Adrenergic α1B (0.1 μM) [2, 4]: 11%

Cc1ccc2c(c1)c1c(n2CC(O)c2ccc(C#N)cc2)CCN(C)C1 (centres unmarked) [142b]
Percentage inhibition of ligand binding, Adrenergic α2A ([1]; 0.1 μM compound): 63%

CN1CCc2c(c3cc(Cl)ccc3n2CC(O)c2cccnc2)C1 (centres unmarked) [compound 7]
inhibition at 0.1 µM [1, 5]: 16%

CN1CCc2c(c3cc(Cl)ccc3n2CC(C)(O)c2ccc(C(F)(F)F)nc2)C1 (single isomer, unassigned) [143a]
Percentage inhibition of ligand binding, Adrenergic α1B ([2]; 0.1 μM compound, 0.1 µM): 43%

Cc1ccc2c(c1)c1c(n2CC(O)c2ccncc2)CN(C)CC1 (centres unmarked) [compound 8]
inhibition at 0.03 µM [3]: 61%

Cc1ccc2c(c1)c1c(n2CC(N)c2ccncc2)CC2CCC1N2C (single isomer, unassigned) [155a]
Percentage inhibition of ligand binding, Adrenergic α2A ([1]; 0.1 μM compound, 0.1 µM): −1%

Cc1ccc2c(c1)c1c(n2CC(c2ccncc2)N2CCCC2)CCN(C)C1 (single isomer, unassigned) [152a]
Percentage inhibition of ligand binding, Adrenergic α2A ([1]; 0.1 μM compound): 17%

CC(O)(Cn1c2c(c3cc(Cl)cnc31)C1CCCN1CC2)c1cccnc1 (single isomer, unassigned) [IV-210a]
Percentage inhibition of ligand binding, Adrenergic α1B (0.03 μM) ([2]; compound at 0.03 μM, repeat datapoints each shown): 43%

Cc1ccc2c(c1)c1c(n2CC(O)c2ccncc2)CCN2CCCC12 (single isomer, unassigned) [129c]
inhibition at 0.03 µM ([1]; 0.03 μM compound, read-out: Percentage inhibition of ligand binding, Adrenergic α2A): 14% | inhibition at 0.1 µM [1, 6]: 29%

Cc1ccc2c(c1)c1c(n2C(C)C(O)c2ccncc2)CCN(C)C1 (centres unmarked) [II-98a]
Percentage inhibition of ligand binding, Adrenergic α2A ([1]; compound at 0.1 μM): 12% | Percentage inhibition of ligand binding, Adrenergic α1B ([2]; compound at 0.1 μM): 33%

OCCN1CCc2c(c3cc(Cl)ccc3n2CC(O)c2ccncc2)C1 (single isomer, unassigned) [II-93b]
Percentage inhibition of ligand binding, Adrenergic α2A ([1]; compound at 0.1 μM, 0.1 µM): 4%

Cc1ccc2c(c1)c1c(n2CC(c2ccncc2)N2CCCC2)CCN(C)C1 (single isomer, unassigned) [152b]
Percentage inhibition of ligand binding, Adrenergic α1B ([2]; 0.1 μM compound): 7%

C/C(=C\n1c2c(c3cc(C)ccc31)C1CCCN1CC2)c1ccc(C)nc1 (centres unmarked) [193a, 10-methyl-7-(2-(6-methylpyridin-3-yl)prop-1-enyl)-2,3,5,6,7,11c-hexahydro-1H-indolizino[7,8-b]indole]
inhibition at 0.1 µM [1, 6]: 85% | inhibition at 0.1 µM ([2]; 0.1 μM compound, read-out: Percentage inhibition of ligand binding, Adrenergic α1B): 89%

Cc1ccc2c(c1)c1c(n2CC(OC(=O)C(C)(C)C)c2ccncc2)CCN(C)C1 (single isomer, unassigned) [130b]
Percentage inhibition of ligand binding, Adrenergic α2A ([1]; 0.03 μM compound, 0.03 µM): 13% | Percentage inhibition of ligand binding, Adrenergic α2A ([1]; 0.1 μM compound, 0.1 µM): 31% | Percentage inhibition of ligand binding, Adrenergic α1B ([2]; 0.03 μM compound, 0.03 µM): 2% | Percentage inhibition of ligand binding, Adrenergic α1B ([2]; 0.1 μM compound, 0.1 µM): 8% and 11%

Cc1ccc2c(c1)c1c(n2CC(O)c2ccncc2)CCN2CCCC12 (single isomer, unassigned) [129b]
Percentage inhibition of ligand binding, Adrenergic α2A ([1]; 0.1 μM compound, 0.1 µM): 55% | Percentage inhibition of ligand binding, Adrenergic α1B ([2]; 0.1 μM compound, 0.1 µM): 69%

Cc1ccc2c(c1)c1c(n2CC(N=[N+]=[N-])c2ccncc2)CCN(C)C1 (racemic) [V-1, 5-(2-azido-2-(pyridin-4-yl)ethyl)-2,3,4,5-tetrahydro-2,8-dimethyl-1H-pyrido[4,3-b]indole]
inhibition at 0.1 µM [2, 7]: 15%

Cc1ccc2c(c1)c1c(n2CC(O)c2cn[nH]c2)CCN(C)C1 (centres unmarked) [II-106a]
Percentage inhibition of ligand binding, Adrenergic α1B ([2]; compound at 0.1 μM): 25%

Cc1cnc2c(c1)c1c(n2CCc2ccc(C)nc2)CCN2CCCC12 (centres unmarked) [compound 74, 10-methyl-7-(2-(6-methylpyridin-3-yl)ethyl)-2,3,5,6,7,1c-hexahydro-1H-pyrido[3′,2′:4,5]pyrrolo[2,3-g]indolizine]
inhibition at 0.1 µM [2, 7]: 81%

Cc1ccc2c(c1)c1c(n2CC(O)c2ccncc2)CCN2CCCC12 (single isomer, unassigned) [129a]
Percentage inhibition of ligand binding, Adrenergic α2A ([1]; 0.1 μM compound, 0.1 µM): 46% | Percentage inhibition of ligand binding, Adrenergic α1B ([2]; 0.1 μM compound, 0.1 µM): 73%

Cc1ccc2c(c1)c1c(n2CC(O)c2ccc(F)cc2)CCN(C)C1 (centres unmarked) [30a]
Percentage inhibition of ligand binding, Adrenergic α1B (0.1 μM) [2, 4]: 57%

CC(O)(Cn1c2c(c3cc(Cl)ccc31)CN(C1CCC1)CC2)c1cccnc1 (single isomer, unassigned) [II-118a]
Percentage inhibition of ligand binding, Adrenergic α2A (0.1 μM) [1, 4]: 3%

Cc1ccc2c(c1)c1c(n2CC(c2ccncc2)N(C)C)CCN(C)C1 (single isomer, unassigned) [150b]
Percentage inhibition of ligand binding, Adrenergic α2A ([1]; 0.1 μM compound, 0.1 µM): 5% | Percentage inhibition of ligand binding, Adrenergic α1B ([2]; 0.1 μM compound, 0.1 µM): 7%

Cc1ccc2c(c1)c1c(n2CC(O)c2ccc(F)cc2)CCN(C)C1 (centres unmarked) [compound 30]
inhibition at 0.1 µM [1, 5]: 63% | inhibition at 0.1 µM [2, 7]: 86%
